Experiment [1] concerns human cancer cells (A549, U373, Hs683, T98G, MCF-7, SKMEL-28, PC-3, HT-29). Put plainly: MTT growth inhibition, mean over the eight human cancer cell lines. It counts as cell-based. The note with it: read-out: IC50 (nM) Mean ± SEM. The text has this:
(§1) The histological types and origins of the eight human cancer cell lines that were used for the MTT colorimetric assay are detailed in the legend of Table 1. Two mouse cancer cell lines were also used, the CT26.WT colon cancer cell line (ATCC code CRL-2638) and the B16F10 melanoma cell line (ATCC code CRL-6475). Both cell lines were obtained from the American Type Culture Collection (ATCC, Manassas, VA). A control cell line (human NHDF fibroblasts) was obtained from PromoCell (code c-12300; Heidelberg, Germany). The cell lines detailed in Figure 2A are a generous gift from the National Cancer Institute (NCI, Bethesda, USA) to Steven Karlish’s lab.
(§2) The cancer cells were cultured in RPMI (Lonza, Verviers, Belgium) medium supplemented with 10% heat-inactivated fetal calf serum (Lonza). All culture media were supplemented with 4 mM glutamine, 100 μg/mL gentamicin, 200 U/mL penicillin and 200 μg/mL streptomycin (Lonza). The NHDF fibroblasts were cultured in Lonza medium cc3132 KT FGM-2 BulletKit.
(§3) The overall growth level of the human cancer cell lines was determined using a colorimetric MTT (3-(4,5-dimethylthiazol-2yl)-2,5-diphenyltetrazolium bromide, Sigma, Belgium) assay as detailed previously. Briefly, this test measures the number of metabolically active (thus living) cells that are able to transform the yellow MTT into the blue formazan dye via a mitochondrial reduction involving succinate dehydrogenase. The amount of formazan obtained at the end of the experiment (measured by spectrophotometry) is directly proportional to the number of living cells. The determination of the optical density in the control compared to the treated cells therefore enables quantitative measurements of the effects of compounds on the growth of normal as well as cancer cells in vitro.
(§4) Each experimental condition was performed in six replicates.

The test system of a further experiment is A549 NSCLC cells. Put plainly: MTT colorimetric in vitro growth inhibition assay. The experiment is classed as cell-based, human. The note with it: read-out: IC50 (nM) A549.
Excerpt: as §1, §2, §3, §4

For another experiment, the system named is U373 glioma cells. The experiment is described as follows: MTT colorimetric in vitro growth inhibition assay. It counts as cell-based, human. The note with it: read-out: IC50 (nM) U373.
Excerpt: as §1, §2, §3, §4

Another experiment relates to HT-29 colon cancer cells. The experiment is described as follows: MTT colorimetric in vitro growth inhibition assay. It counts as cell-based, human. The note with it: read-out: IC50 (nM) HT-29.
Excerpt: as §1, §2, §3, §4

In another experiment the test system is T98G glioma cells. Put plainly: MTT colorimetric in vitro growth inhibition assay. The experiment is classed as cell-based, human. The following applies: read-out: IC50 (nM) T98G.
Excerpt: as §1, §2, §3, §4

The subject of experiment [2] is PC-3 prostate cancer cells. Put plainly: MTT colorimetric in vitro growth inhibition assay. The experiment is classed as cell-based, human. The following applies: read-out: IC50 (nM) PC-3.
Excerpt: as §1, §2, §3, §4

A further experiment has as its system Hs683 glioma cells. Put plainly: MTT colorimetric in vitro growth inhibition assay. The experiment is classed as cell-based, human. The following applies: read-out: IC50 (nM) Hs683.
Excerpt: as §1, §2, §3, §4

A further experiment concerns SKMEL-28 melanoma cells. The experiment is described as follows: MTT colorimetric in vitro growth inhibition assay. The note with it: read-out: IC50 (nM) SKMEL-28. It counts as cell-based, human.
Excerpt: as §1, §2, §3, §4

In experiment [3] the test system is MCF-7 breast cancer cells. Put plainly: MTT colorimetric in vitro growth inhibition assay. The following applies: read-out: IC50 (nM) MCF-7. The experiment is classed as cell-based, human.
Excerpt: as §1, §2, §3, §4

Experiment [4] deals with T1, purified human α1β1 Na+/K+-ATPase (Homo sapiens, UniProt P05023).
T1 construct: made in house; host or cells: Pichia pastoris strain SMD1165; detergent-soluble complex purified
The experiment is described as follows: Inhibition of NaK activity of purified detergent-soluble complex (Pi release). It counts as biochemical. The note with it: 37°C, 1 h, 1 mM ATP; read-out: Ki for inhibition of NaK activity of purified human α1β1. As for the experimental part:
The inhibition of NaK activity of the purified detergent-soluble α1β1, α2β1, and α3β1 complexes by cardiotonic steroids and an analysis of the inhibition data (Ki values) were also performed as previously described. The inhibitors were added to the recombinant enzyme (0.08–0.2 μg of protein) in 400 μl of reaction medium containing 130 mM NaCl, 5 mM KCl, 3 mM MgCl2, 25 mM histidine, pH 7.4, 1 mM EGTA, 0.01 mg/ml SOPS, 0.001 mg/ml cholesterol, and 0.005 mg/ml C12 E8 in 48-well plates. The reaction (37°C for 1 h) was started by the addition of 1mM ATP. Pi release was measured with a malachite green dye to detect the phosphor-molybdate (Pi Color Lock, Innova Biosciences). The percent inhibition V /V0 was calculated for each cardiac glycoside concentration, and Ki values were obtained by fitting the data to the function V /V0 = Ki /([CG] + Ki ) (using Kaleidagraph). V0 and V represent the control rate and rate of NaK-ATPase activity at particular concentrations of cardiac glycosides, [CG], respectively.
(§5) Average KD or Ki values ± SEM for each isoform were calculated. Statistical significance was calculated by the unpaired Students t-test. P values <0.05 were considered significant.

Another experiment addresses T2, human α3β1 NaK complex (Homo sapiens, UniProt P13637).
T2 construct: made in house; host or cells: Pichia pastoris strain SMD1165 (membranes)
Put plainly: 3H-ouabain competitive displacement on P. pastoris membranes. It counts as binding. The method, then:
(§6) K0.5 was calculated using a one site inhibition model: B/BCG=0 = K0.5/([CG] + K0.5). […] Binding of each cardiac glycoside was estimated in 3 separate experiments.
as §5

For the next experiment, the target named is T3, human α1β1 NaK complex (Homo sapiens, UniProt P05023).
T3 construct: made in house; host or cells: Pichia pastoris strain SMD1165 (membranes)
Described as above. It counts as binding. The note with it: 3H-ouabain displacement, three independent experiments; read-out: Affinity (nM) α-1 (KD ± SEM). The method, then:
as §6, §5

The target in another experiment is T4, human α2β1 NaK complex (Homo sapiens, UniProt P50993).
T4 construct: made in house; host or cells: Pichia pastoris strain SMD1165 (membranes)
The description is as above. The experiment is classed as binding. The method, then: as §6, §5

Another experiment relates to NHDF fibroblasts. Put plainly: MTT growth inhibition in non-cancerous control cell line. The note with it: NHDF, normal human fibroblasts, read-out: in vitro growth inhibitory effects (IC50) in NHDF fibroblasts. The experiment is classed as cell-based.
Excerpt: as §1, §2, §3, §4

[5] abbreviates: 72 h, mean over eight human cancer cell lines, three days of culture.
Where [6] appears, read: Homo sapiens, A549, 72 h, three days of culture, * three independent experiments, ** one experiment, six replicates.
The mark [7] stands for this setting: Homo sapiens, U373 MG, 72 h, three days of culture, * three independent experiments, ** one experiment, six replicates.
Setting [8] is: Homo sapiens, HT-29, 72 h, three days of culture, * three independent experiments, ** one experiment, six replicates.
The mark [9] stands for this setting: Homo sapiens, T98G, 72 h, three days of culture, * three independent experiments, ** one experiment, six replicates.
Where [10] appears, read: Homo sapiens, 72 h, three days of culture, * three independent experiments, ** one experiment, six replicates.
Where [11] appears, read: Homo sapiens, Hs 683, 72 h, three days of culture, * three independent experiments, ** one experiment, six replicates.
The mark [12] stands for this setting: Homo sapiens, SK-MEL-28, 72 h, three days of culture, * three independent experiments, ** one experiment, six replicates.
Where [13] appears, read: Homo sapiens, MCF7, 72 h, three days of culture, * three independent experiments, ** one experiment, six replicates.
Where [14] appears, read: three days of culture, * three independent experiments, ** one experiment, six replicates.

Read-outs that look alike come from different tables or passages of the source.

In the case of `C[C@]12CC[C@H](O)C[C@H]1CC[C@@H]1[C@@H]2CC[C@]2(C)[C@@H](C3=CC(=O)OC3)CC[C@]12O` [Digitoxigenin], the IC50 in experiment [1] (Homo sapiens, 72 h) worked out at 733 ± 349 nM; in the experiment with A549 NSCLC cells (Homo sapiens, A549, 72 h), 92 nM; in the experiment with U373 glioma cells (Homo sapiens, U373 MG, 72 h), 369 nM; in the experiment on HT-29 colon cancer cells (Homo sapiens, HT-29, 72 h), 230 nM; in the experiment on T98G glioma cells (Homo sapiens, T98G, 72 h), 166 nM; in experiment [2] (Homo sapiens, 72 h), 298 nM. Further, the IC50 with Hs683 glioma cells (Homo sapiens, Hs 683, 72 h) came out at 79 nM; in the experiment on SKMEL-28 melanoma cells (Homo sapiens, SK-MEL-28, 72 h) it was 2500 nM; in experiment [3] (Homo sapiens, MCF7, 72 h), 2130 nM.

Consider `C[C@H]1O[C@@H](O[C@H]2[C@@H](O)C[C@H](O[C@H]3[C@@H](O)C[C@H](O[C@H]4CC[C@@]5(C)[C@H](CC[C@@H]6[C@@H]5CC[C@]5(C)[C@@H](C7=CC(=O)OC7)CC[C@]65O)C4)O[C@@H]3C)O[C@@H]2C)C[C@H](O)[C@@H]1O` [Digitoxin, digitoxin], for which the IC50 in [1] (setting [5]) was 75 ± 26 nM; with A549 NSCLC cells (setting [6]) it was 11 nM; with U373 glioma cells (setting [7]), 61 nM; in the experiment on HT-29 colon cancer cells (setting [8]) it was 198 nM; with T98G glioma cells (setting [9]), 32 nM; in experiment [2] (setting [10]), 37 nM. The IC50 is 15 nM in the experiment on Hs683 glioma cells (setting [11]), 59 nM in the experiment with SKMEL-28 melanoma cells (setting [12]) and 187 nM in [3] (setting [13]).

Turning to `C[C@]12C[C@@H](O)[C@H]3[C@@H](CC[C@]4(O)C[C@@H](O)C[C@@H](O)[C@]34CO)[C@@]1(O)CC[C@@H]2C1=CC(=O)OC1` [Ouabagenin, ouabagenin], the Ki in experiment [4] came to 721 ± 70 nM. The IC50 worked out at 3050 nM in [1] (mean over eight human cancer cell lines, three days of culture); 866 ± 25 nM in the experiment on A549 NSCLC cells (setting [14]); 5280 nM with U373 glioma cells (setting [14]); 3480 nM in the experiment on HT-29 colon cancer cells (setting [14]); 3600 nM with T98G glioma cells (setting [14]); 2710 nM in experiment [2] (setting [14]). In addition, the values for the IC50 (in the experiment on Hs683 glioma cells (setting [14]); in the experiment with SKMEL-28 melanoma cells (setting [14]); in experiment [3] (setting [14])) were 1900 nM, 2560 nM and 4010 nM, respectively.

For the molecule `C[C@]12CC[C@H](O)C[C@H]1CC[C@@H]1[C@@H]2[C@H](O)C[C@]2(C)[C@@H](c3ccc(=O)oc3)CC[C@]12O` [Gamabufotalin, gamabufotalin], the Kd is 236 ± 14 nM on human α3β1 NaK complex (3H-ouabain displacement, three independent experiments, read-out: Affinity (nM) α-3 (KD ± SEM)); 243 ± 48 nM at human α1β1 NaK complex; 247 ± 30 nM on human α2β1 NaK complex (3H-ouabain displacement, three independent experiments, read-out: Affinity (nM) α-2 (KD ± SEM)). Also, at human α3β1 NaK complex (ratio of KD α-1 to KD α-3), the “Selectivity α-1 / α-3” value came out at 1.0. Moreover, the “Selectivity α-1 / α-2” value on human α2β1 NaK complex (ratio of KD α-1 to KD α-2) amounted to 1.0. Further, the IC50 in [1] (Homo sapiens, 72 h) is 26 ± 4 nM; in the experiment with NHDF fibroblasts it was > 10000 nM; with A549 NSCLC cells (Homo sapiens, A549, 72 h), 7 ± 1 nM; with U373 glioma cells (Homo sapiens, U373 MG, 72 h), 34 ± 1 nM; with HT-29 colon cancer cells (Homo sapiens, HT-29, 72 h), 37 ± 3 nM; in the experiment with T98G glioma cells (Homo sapiens, T98G, 72 h), 31 ± 8 nM. Further, the IC50 was 22 ± 4 nM in [2] (Homo sapiens, 72 h); 14 ± 3 nM in the experiment with Hs683 glioma cells (Homo sapiens, Hs 683, 72 h); 22 ± 1 nM with SKMEL-28 melanoma cells (Homo sapiens, SK-MEL-28, 72 h); 40 ± 7 nM in experiment [3] (Homo sapiens, MCF7, 72 h).

With `C[C@]12CC[C@H](O)C[C@H]1CC[C@@H]1[C@@H]2C[C@@H](O)[C@]2(C)[C@@H](C3=CC(=O)OC3)CC[C@]12O` [Digoxigenin, digoxigenin], the IC50 was found to be 2900 nM in [1] (setting [5]); 395 ± 34 nM in the experiment on A549 NSCLC cells (setting [6]); 3190 nM with U373 glioma cells (setting [7]); 4460 nM in the experiment on HT-29 colon cancer cells (setting [8]); 1170 nM in the experiment on T98G glioma cells (setting [9]); 3880 nM in experiment [2] (setting [10]). Moreover, the IC50 with Hs683 glioma cells (setting [11]) worked out at 794 ± 22 nM; in the experiment on SKMEL-28 melanoma cells (setting [12]) it was 4000 nM; in experiment [3] (setting [13]) it was 5320 nM.

As usually defined, the IC50 is the concentration needed to halve the response being measured. For orientation: Ki means the equilibrium dissociation constant of an inhibitor or competing ligand from its target. Usually Kd stands for the concentration at which binding is half-saturated.

For the origin of these results see article PMC3722118, “Hellebrin and its aglycone form hellebrigenin display similar in vitro growth inhibitory effects in cancer cells and binding profiles to the alpha subunits of the Na^+/K^+-ATPase” (Molecular Cancer, 2013).
